The source of these data is patent US20120260922A1, “TOPICAL USE OF HYDROXYTYROSOL AND DERIVATIVES FOR THE PREVENTION OF HIV INFECTION” (priority 2009, published 2012).

In series [1] the test system is X4-tropic virus (NL.4.3 Ren). Kind of series: Antiviral activity in PBMC's, X4-tropic virus. The series is classed as cell-based, HIV-1. The settings on record: PBMC's activated with PHA+IL-2; compared with MT-2. Here is the method: Similar assays were carried out using peripheral blood mononuclear cells (PBMC's) for healthy donors, prior activation with PHA+IL-2 during 48 hours and maintaining with IL-2 for at least another 48 hours. In this case the number of cells per well was 250.000. In addition, infection with HIV virus with R5-tropism (JR-Ren) was also included in the assays.

The test system of series [2] is raltegravir resistant HIV virus (mutation 148). Put plainly: Antiviral activity against raltegravir resistant viruses. The series is classed as cell-based. Particulars: viruses resistant to raltegravir.
The nature of series [3]: Vaginal tolerance in rabbits after repeated topical administration. The settings on record: rabbit, once daily 7 days, solution 90 and 397 mg/L. The format is in vivo. As for the experimental part: To determine the safety of hydroxytyrosol, a study of vaginal tolerance in rabbits after repeated once daily administration during 7 days was performed. Hydroxytyrosol was applied as a solution.

The next series has as its system MT-2 cells. Put plainly: Viability assay on non-infected MT-2 cells. The settings on record: 48 hour.
The target of another series is HIV-integrase (Human immunodeficiency virus type 1 group M subtype B, UniProt P04585). Particulars: Huang et al. 2007; cited from earlier work.
In series [4] the test system is recombinant virus NL4.3-delta-env-VSV-Luc (HIV VSV pseudotyped virus). The format is cell-based, HIV-1.

On to `OCCc1ccc(O)c(O)c1` [Hydroxytyrosol, 4-(2-hydroxyethyl)-1,2-benzenediol], for which the “IC50 value for infection with X4-tropic” value in series [1] is “higher than in the assays with cell line MT-2”. In series [2], the “activity against integrase resistant viruses” value is on record as “lack of cross resistance”. The “activity against integrase resistant viruses” value in series [2] (listed as hydroxytyrosol) is reported as “mantained its activity”. For the same compound, in series [3], the “mean irritation value (MIV)” value came out at 0.00 and the “morphological alterations in the vagina” value was “no morphological alterations”. Moreover, the “toxicity / cell viability” value in the series on MT-2 cells is “not due to toxicity”. Also, the “effect on in vitro HIV-integrase activity” value on HIV-integrase is on record as “dose-dependent inhibitory effect”. Further, the “inhibition of VSV pseudotyped viruses” value in series [4] is reported as “inhibits VSV pseudotyped viruses”.
